According to patent US20240254118A1, “PRMT5 INHIBITORS AND USES THEREOF” (Gilead Sciences, Inc., priority 2022, published 2024):

system: HCT116 MTAP-deleted cells; experiment: Cell viability assay (CellTiter-Glo, 7 days), HCT116 MTAP-deleted; conditions: Homo sapiens, HCT-116, 168 h

| Structure (SMILES) | CC50 |
| --- | --- |
| Nc1nc2ccc(C(=O)N(Cc3nc4ccc(Cl)cc4[nH]3)N3CCCC3=O)cc2c2ccccc12 [Example 124, 6-amino-N-((6-chloro-1H-benzo[d]imidazol-2-yl)methyl)-N-(2-oxopyrrolidin-1-yl)phenanthridine-2-carboxamide] | 100 to 1000 nM |
| CC(=O)N(C)N(Cc1ccc(-c2cnc(C(F)(F)F)s2)cc1F)C(=O)c1ccc2nc(N)c3cnn(C)c3c2c1 [Example 217, N′-acetyl-4-amino-N-(2-fluoro-4-(2-(trifluoromethyl)thiazol-5-yl)benzyl)-N′,1-dimethyl-1H-pyrazolo[4,3-c]quinoline-8-carbohydrazide] | < 100 nM |
| CC(=O)N(C)N(Cc1ccc(-c2ccc(C(F)(F)F)cn2)cc1F)C(=O)c1ccc2nc(N)c3cnn(C)c3c2c1 [Example 224, N′-acetyl-4-amino-N-(2-fluoro-4-(5-(trifluoromethyl)pyridin-2-yl)benzyl)-N′,1-dimethyl-1H-pyrazolo[4,3-c]quinoline-8-carbohydrazide] | < 100 nM |
| CC(=O)N(C)N(Cc1ccc(-c2cc(C(F)(F)F)ccn2)cc1F)C(=O)c1ccc2nc(N)c3cnn(C)c3c2c1 [Example 225, N′-acetyl-4-amino-N-(2-fluoro-4-(4-(trifluoromethyl)pyridin-2-yl)benzyl)-N′,1-dimethyl-1H-pyrazolo[4,3-c]quinoline-8-carbohydrazide] | < 100 nM |
| CC(=O)N(C)N(Cc1ccc(-c2cnoc2)cc1F)C(=O)c1ccc2nc(N)c3cnn(C)c3c2c1 [Example 227, N′-acetyl-4-amino-N-(2-fluoro-4-(isoxazol-4-yl)benzyl)-N′,1-dimethyl-1H-pyrazolo[4,3-c]quinoline-8-carbohydrazide] | < 100 nM |
| CC(=O)N(C)N(Cc1ccc(-c2ccc(C(F)(F)F)s2)cc1F)C(=O)c1ccc2nc(N)c3cnn(C)c3c2c1 [Example 237, N′-acetyl-4-amino-N-(2-fluoro-4-(5-(trifluoromethyl)thiophen-2-yl)benzyl)-N′,1-dimethyl-1H-pyrazolo[4,3-c]quinoline-8-carbohydrazide] | < 100 nM |
| CN(C(=O)C1CC1)N(Cc1ccc(-c2ccsn2)cc1F)C(=O)c1ccc2nc(N)c3cnn(C)c3c2c1 [Example 239, 4-amino-N′-(cyclopropanecarbonyl)-N-(2-fluoro-4-(isothiazol-3-yl)benzyl)-N′,1-dimethyl-1H-pyrazolo[4,3-c]quinoline-8-carbohydrazide] | < 100 nM |
| CC(=O)N(C)N(Cc1ccc(-c2cccnc2)cc1F)C(=O)c1ccc2nc(N)c3cnn(C)c3c2c1 [Example 241, N′-acetyl-4-amino-N-(2-fluoro-4-(pyridin-3-yl)benzyl)-N′,1-dimethyl-1H-pyrazolo[4,3-c]quinoline-8-carbohydrazide] | < 100 nM |
| CC(=O)N(C)N(Cc1ccc(-c2cncs2)cc1F)C(=O)c1ccc2nc(N)c3cnn(C)c3c2c1 [Example 245, N′-acetyl-4-amino-N-(2-fluoro-4-(thiazol-5-yl)benzyl)-N′,1-dimethyl-1H-pyrazolo[4,3-c]quinoline-8-carbohydrazide] | < 100 nM |
| CC(=O)N(C)N(Cc1ccc(-c2cnn(C3(C)CC3)c2)cc1F)C(=O)c1ccc2nc(N)c3cnn(C)c3c2c1 [Example 247, N′-acetyl-4-amino-N-(2-fluoro-4-(1-(1-methylcyclopropyl)-1H-pyrazol-4-yl)benzyl)-N′,1-dimethyl-1H-pyrazolo[4,3-c]quinoline-8-carbohydrazide] | < 100 nM |
| CC(=O)N(C)N(Cc1ccc(-c2cnn(C(F)(F)F)c2)cc1C#N)C(=O)c1ccc2nc(N)c3cnn(C)c3c2c1 [Example 251, N′-acetyl-4-amino-N-(2-cyano-4-(1-(trifluoromethyl)-1H-pyrazol-4-yl)benzyl)-N′,1-dimethyl-1H-pyrazolo[4,3-c]quinoline-8-carbohydrazide] | < 100 nM |
| CC(=O)N(C)N(Cc1ccc(-c2cnn(C(F)F)c2)cc1C#N)C(=O)c1ccc2nc(N)c3cnn(C)c3c2c1 [Example 252, N′-acetyl-4-amino-N-(2-cyano-4-(1-(difluoromethyl)-1H-pyrazol-4-yl)benzyl)-N′,1-dimethyl-1H-pyrazolo[4,3-c]quinoline-8-carbohydrazide] | < 100 nM |
| [2H]C([2H])([2H])N(C(=O)C1CC1)N(Cc1ncc(C(F)(F)F)cc1F)C(=O)c1ccc2nc(N)c3cnn(C)c3c2c1 [Example 268, 4-amino-N′-(cyclopropanecarbonyl)-N-((3-fluoro-5-(trifluoromethyl)pyridin-2-yl)methyl)-1-methyl-N′-(methyl-d3)-1H-pyrazolo[4,3-c]quinoline-8-carbohydrazide] | < 100 nM |
| [2H]C([2H])([2H])N(C(C)=O)N(Cc1ccc(C(F)(F)F)cc1F)C(=O)c1ccc2nc(N)c3cnn(C)c3c2c1 [Example 269, N′-acetyl-4-amino-N-(2-fluoro-4-(trifluoromethyl)benzyl)-1-methyl-N′-(methyl-d3)-1H-pyrazolo[4,3-c]quinoline-8-carbohydrazide] | < 100 nM |
| CC(=O)N(C)N(Cc1cccc2ccoc12)C(=O)c1ccc2nc(N)c3cnn(C)c3c2c1 [Example 273, N′-acetyl-4-amino-N-(benzofuran-7-ylmethyl)-N′,1-dimethyl-1H-pyrazolo[4,3-c]quinoline-8-carbohydrazide] | < 100 nM |
| CN(C(=O)C1CC1)N(Cc1ccc2c(c1)OC(F)(F)O2)C(=O)c1cc2c(cc1F)nc(N)c1cnn(C)c12 [Example 282, 4-amino-N′-(cyclopropanecarbonyl)-N-((2,2-difluorobenzo[d][1,3]dioxol-5-yl)methyl)-7-fluoro-N′,1-dimethyl-1H-pyrazolo[4,3-c]quinoline-8-carbohydrazide] | < 100 nM |
| Cn1ncc2c(N)nc3cc(F)c(C(=O)N(Cc4ccc(C(F)(F)F)cn4)N4CCOC5(CC5)C4)cc3c21 [Example 284, 4-amino-7-fluoro-1-methyl-N-(4-oxa-7-azaspiro[2.5]octan-7-yl)-N-((5-(trifluoromethyl)pyridin-2-yl)methyl)-1H-pyrazolo[4,3-c]quinoline-8-carboxamide] | < 100 nM |
| Cn1ncc2c(N)nc3ccc(C(=O)N(Cc4ccc(C(F)(F)F)cn4)N4CCOC5(CC5)C4)cc3c21 [Example 285, 4-amino-1-methyl-N-(4-oxa-7-azaspiro[2.5]octan-7-yl)-N-((5-(trifluoromethyl)pyridin-2-yl)methyl)-1H-pyrazolo[4,3-c]quinoline-8-carboxamide] | 100 to 1000 nM |
| CN(C(=O)C1CC1)N(Cc1ccc(OC(F)F)cn1)C(=O)c1cc2c(cc1F)nc(N)c1cnn(C)c12 [Example 290, 4-amino-N′-(cyclopropanecarbonyl)-N-((5-(difluoromethoxy)pyridin-2-yl)methyl)-7-fluoro-N′,1-dimethyl-1H-pyrazolo[4,3-c]quinoline-8-carbohydrazide] | < 100 nM |
| CN(C(=O)C1CC1)N(Cc1ccc(OC(F)F)cn1)C(=O)c1ccc2nc(N)c3cnn(C)c3c2c1 [Example 291, 4-amino-N′-(cyclopropanecarbonyl)-N-((5-(difluoromethoxy)pyridin-2-yl)methyl)-N′,1-dimethyl-1H-pyrazolo[4,3-c]quinoline-8-carbohydrazide] | < 100 nM |
| CN(C(=O)C1CC1)N(Cc1ccc(-c2ccn(C(F)F)n2)cc1F)C(=O)c1ccc2nc(N)c3cnn(C)c3c2c1 [Example 312, 4-amino-N′-(cyclopropanecarbonyl)-N-(4-(1-(difluoromethyl)-1H-pyrazol-3-yl)-2-fluorobenzyl)-N′,1-dimethyl-1H-pyrazolo[4,3-c]quinoline-8-carbohydrazide] | < 100 nM |
| COc1c(CN(C(=O)c2ccc3nc(N)c4cnn(C)c4c3c2)N(C)C(=O)C2CC2)ccc(Cl)c1F [Example 313, 4-amino-N-(4-chloro-3-fluoro-2-methoxybenzyl)-N′-(cyclopropanecarbonyl)-N′,1-dimethyl-1H-pyrazolo[4,3-c]quinoline-8-carbohydrazide] | < 100 nM |
| CN(C(=O)C1CC1)N(Cc1cc(F)c(-c2cnn(C(F)F)c2)cc1F)C(=O)c1ccc2nc(N)c3cnn(C)c3c2c1 [Example 314, 4-amino-N′-(cyclopropanecarbonyl)-N-(4-(1-(difluoromethyl)-1H-pyrazol-4-yl)-2,5-difluorobenzyl)-N′,1-dimethyl-1H-pyrazolo[4,3-c]quinoline-8-carbohydrazide] | < 100 nM |
| COCc1cc(C(F)(F)F)ccc1CN(C(=O)c1ccc2nc(N)c3cnn(C)c3c2c1)N(C)C(=O)C1CC1 [Example 316, 4-amino-N′-(cyclopropanecarbonyl)-N-(2-(methoxymethyl)-4-(trifluoromethyl)benzyl)-N′,1-dimethyl-1H-pyrazolo[4,3-c]quinoline-8-carbohydrazide] | < 100 nM |
| CN(C(=O)C1CC1)N(Cc1ccc(OC(F)F)cc1F)C(=O)c1ccc2nc(N)c3cnn(C)c3c2c1 [Example 317, 4-amino-N′-(cyclopropanecarbonyl)-N-(4-(difluoromethoxy)-2-fluorobenzyl)-N′,1-dimethyl-1H-pyrazolo[4,3-c]quinoline-8-carbohydrazide] | < 100 nM |
| Cn1ncc2c(N)nc3ccc(C(=O)N(Cc4ccc(C(F)(F)F)cn4)N4CC5(CC5)COC4=O)cc3c21 [Example 319, 4-amino-1-methyl-N-(6-oxo-5-oxa-7-azaspiro[2.5]octan-7-yl)-N-((5-(trifluoromethyl)pyridin-2-yl)methyl)-1H-pyrazolo[4,3-c]quinoline-8-carboxamide] | < 100 nM |
| Cn1ncc2c(N)nc3cc(F)c(C(=O)N(Cc4ccc(C(F)(F)F)cn4)N4CC5(CC5)COC4=O)cc3c21 [Example 320, 4-amino-7-fluoro-1-methyl-N-(6-oxo-5-oxa-7-azaspiro[2.5]octan-7-yl)-N-((5-(trifluoromethyl)pyridin-2-yl)methyl)-1H-pyrazolo[4,3-c]quinoline-8-carboxamide] | < 100 nM |
| CC(=O)N(C)N(Cc1ccc(-c2ccn(C(F)(F)F)n2)nc1F)C(=O)c1ccc2nc(N)c3cnn(C)c3c2c1 [Example 346, N′-acetyl-4-amino-N-((2-fluoro-6-(1-(trifluoromethyl)-1H-pyrazol-3-yl)pyridin-3-yl)methyl)-N′,1-dimethyl-1H-pyrazolo[4,3-c]quinoline-8-carbohydrazide] | < 100 nM |
